Reference: patent publication EP0324390A2, “Nigericin derivatives, method for their preparation, compositions containing them and use of these compositions” (priority 1988, dated 1989)
≈ marks a conversion by molar mass, not a printed value.

Key:
Format in all cases: cell-based
Testviren = test: Antiviral activity in cell culture (CPE, HeLa or Vero cells); settings: cell cultures infected with test viruses; qualitative statement
E. coli = test: Antibacterial activity against gram-negative bacteria; settings: Escherichia coli, read-out: MHK
Description: (§1) Die antibakterielle Wirksamkeit der erfindungsgemäßen Verbindungen wurde im Agar-Verdünnungstest nach Lorian (Antibiotics in Laboratory Medicine, Williams & Wilkins, Baltimore/London, 1980) bestimmt. Dabei wurden die Präparate in einer geometrischen Verdünnungsreihe mit dem Faktor 2 in Müller Hinton Agar verdünnt. Eine Petrischale enthielt nur Müller Hinton Agar und diente zur Kontrolle des Bakterienwachstums. Die Petrischalen wurden dann mit einem Denley-Multipoint-Inokulator, welcher 0,6 ul einer 1 : 100 verdünnten 18-Stunden-Kultur der Testbakterien übertrug, mit den entsprechenden Testbakterien beimpft. Nach 16 bis 18 Stunden Inkubation bei 37^. C wurden die Petrischalen makroskopisch auf Bakterienwachstum untersucht.
(§2) Die niedrigste Konzentration der erfindungsgemäßen Verbindungen, welche das Bakterienwachstum noch vollständig verhinderte, wurde als MIC (Minimum Inhibitory Concentration) angenommen.
(§3) Überraschend zeigen die Dicarbonsäure-Addukte des Nigericins auch eine Wirkung gegen gramnegative Bakterien. So besitzt beispielsweise die Substanz aus Beispiel 32 gegen E. coli eine MHK von 0,55 µg/ml, gegen E. coli (DC 2) eine MHK von 25,0 µg/ml und gegen Entrob. Cloacae (1321 E) eine MHK von 250 µg/ml.

E. coli (DC 2) = test: as above; settings: Escherichia coli, read-out: MHK
Description: as §1, §2, §3

Entrob. Cloacae (1321 E) = test: as above; settings: Enterobacter cloacae, read-out: MHK
Description: as §1, §2, §3

Staph. aureus (SG 511) = test: Agar dilution test according to Lorian (antibacterial activity); settings: Staphylococcus aureus
Description: as §1, §2
(§4) In Tabelle 4 ist die Wirkung (Angabe des MIC in µg/ml) von verschiedenen erfindungsgemäßen Verbindungen gegen folgende Bakterien aufgeführt: • Staph. aureus (SG 511), Staph. aureus (285), Staph. aureus (503), Strept. pyogenes (308 A), Strept pyogenes (77 A), Strept. faecium (D).

Staph. aureus (503) = test: as above; settings: Staphylococcus aureus
Description: as §1, §2, §4

Strept. faecium (D) = test: as above; settings: Enterococcus faecium
Description: as §1, §2, §4

Staph. aureus (285) = test: as above; settings: Staphylococcus aureus
Description: as §1, §2, §4

| SMILES | antivirale Wirkung (Testviren) | MIC (E. coli) [µg/mL] | MIC (E. coli (DC 2)) [µg/mL] | MIC (Entrob. Cloacae (1321 E)) [µg/mL] | MIC (Staph. aureus (SG 511)) [µg/mL] | MIC (Staph. aureus (503)) [µg/mL] | MIC (Strept. faecium (D)) [µg/mL] | MIC (Staph. aureus (285)) [µg/mL] |
| --- | --- | --- | --- | --- | --- | --- | --- | --- |
| CO[C@@H]1C[C@@H](C[C@H]2CC[C@H](C)[C@H]([C@@H](C)C(=O)O)O2)O[C@]2(O[C@](C)([C@H]3CC[C@@](C)([C@@H]4O[C@@H]([C@H]5O[C@@](O)(CO)[C@H](C)C[C@@H]5C)C[C@@H]4C)O3)C[C@H]2C)[C@@H]1C [Beispiel 1, Nigericin] | ausgezeichnete antivirale Wirkung |  |  |  |  |  |  |  |
| COC1CC(CC2CCC(C)C(C(C)C(=O)O)O2)OC2(OC(C)(C3CCC(C)(C4OC(C5OC(O)(COC(=O)CCCC(=O)O)C(C)CC5C)CC4C)O3)CC2C)C1C (centres unmarked) [Beispiel 32] |  | 0.55 (≈ 0.655 µM) | 25 (≈ 29.8 µM) | 250 (≈ 298 µM) | 0.39 (≈ 0.465 µM) | 0.39 (≈ 0.465 µM) | 0.39 (≈ 0.465 µM) | 0.39 (≈ 0.465 µM) |
